Test results from patent US5710157A, “2,4-diamino-5,6-disubstituted-and 5,6,7-trisubstituted-5-deazapteridines as insecticides” (FMC Corporation, priority 1996, dated 1998).

Test system: tobacco budworm (Heliothis virescens [Fabricius])
Assay: diet test: insect growth inhibition and mortality, tobacco budworm larvae, 5-day exposure
Assay type: in vivo
Conditions: second instar larvae
Protocol: The 5-deazapteridine of the present invention were incorporated into an artificial diet for evaluation of insecticidal activity against the tobacco budworm (Heliothis virescens [Fabricius]).
Stock solutions of test chemical in dimethyl sulfoxide were prepared for each rate of application. The rates of application, expressed as the negative log of the molar concentration, and the corresponding concentrations of the stock solution prepared for each rate are shown below:
One hundred microliters of each of the stock solutions was manually stirred into 50 mL of a molten (65°-70° C.) wheat germ-based artificial diet. The 50 mL of molten diet containing the test chemical was poured evenly into twenty wells in the outer four rows of a twenty-five well, five row plastic tray. Each well in the tray was about 1 cm in depth, with an opening of 3 cm by 4 cm at the lip. Molten diet containing only dimethyl sulfoxide at the levels used in the test chemical-treated diet was poured into the five wells in the third row of the tray. Each tray therefore contained one test chemical at a single rate of application, together with an untreated control.
Single second instar tobacco budworm larvae were placed in each well. The larvae were selected at a stage of growth at which they uniformly weigh about 5 mg each. Upon completion of infestation, a sheet of clear plastic was heat-sealed over the top of the tray using a common household flat iron. The trays were held at 25° C. at 60% relative humidity for five days in a growth chamber. Lighting was set at 14 hours of light and 10 hours of darkness.
After the 5-day exposure period, mortality counts were taken, and the surviving insects were weighed. From the weights of the surviving insects that fed on the treated diet as compared to those insects that fed on the untreated diet, the percent growth inhibition caused by each test chemical was determined. […] Where possible, the negative log of the concentration of the test chemical that provided 50% mortality (pLC50) was also determined.
The compounds of the present invention were tested in the diet test as insect growth inhibitors against the larvae of tobacco budworm (above).

With `COc1ccc(OC)c(Cc2cnc3nc(N)nc(N)c3c2C)c1` [Compound 90, 2,4-diamino-5-methyl-6-(2,5-dimethoxyphenylmethyl)-5-deazapteridine] the IC50 (Heliothis virescens, 120 h, artificial diet, linear regression, read-out: pI50: negative log of the concentration that provides 50% growth inhibition (converted)) was 1000 nM, the “Percent Growth Inhibition” value (rate of application 4 (negative log of molar concentration in diet)) was 95% and the “Percent Growth Inhibition” value (rate of application 5 (negative log of molar concentration in diet)) was 87%. The “Percent Growth Inhibition” value (rate of application 6 (negative log of molar concentration in diet)) was 41% and the “Percent Growth Inhibition” value (rate of application 7 (negative log of molar concentration in diet)) was 26%.
